Earlier results in patent US20160051468A1, “Compositions for Prevention and/or Treatment of Gastrointestinal Imbalances in Digestive Disorders” (BRIGHT DRINKS INC., priority 2013, published 2016).
Blank lines part the entries; values can stand above or below the compound they belong to.

Columns and labels:
[1] = system: H. pylori
[2] = system: TNFα; conditions: LPS-stimulated macrophage cell line; dose-response fashion
[3] = system: DNA; conditions: hydroxyl radical attack, in vitro
[4] = system: NF-κB; conditions: human IEC lines; by inhibiting I-κB kinase activity
[5] = in vitro, compared with other tea catechins
[6] = system: NF-κB; conditions: human colon carcinoma cell line

minimum-inhibitory-concentration (MIC) for 90% of isolates ([1]; 110 mostly clinical isolates of H. pylori): 32 μg per mL
SMILES: O=C(O[C@@H]1Cc2c(O)cc(O)cc2O[C@@H]1c1cc(O)c(O)c(O)c1)c1cc(O)c(O)c(O)c1 [EGCG, epigallocatechin gallate]
concentration with bactericidal effect ([1]; H. pylori in vitro): 4 times the MIC
concentration with bacteriostatic effect ([1]; H. pylori in vitro): 2 times the MIC
TNFα protein levels [2]: significant decrease
reduction of oxidative damage sustained by DNA [3]: highly active
NF-κB activation [4]: blocking NF-κB activation
scavenging of superoxide anion and hydroxyl radical [5]: most effective of all catechins

SMILES: CCC(=O)O [Propionate]
suppression of NF-κB reporter activity, relative potency [6]: equipotent

SMILES: CC(=O)O [acetate]
suppression of NF-κB reporter activity, relative potency [6]: slightly less effective
